Data taken from US9724397B2, “Sustained release formulations comprising very low molecular weight polymers” (IPSEN PHARMA S.A.S., priority 2006, dated 2017).

Assay: In-vivo release assay in Beagle dogs with a VLMW polymer not end-capped
Conditions: 10% BIM21003 in PLGA 50/50 ended by carboxylic acid group (J001/3000013), intramuscular, about 3.6 mg per animal, RIA
Method: An in-vivo assay was performed with a semi-solid formulation of 10% BIM21003 using a PLGA 50/50 ended by a carboxylic acid group (J001/3000013 batch, see table 1). The preparation of the formulation was achieved by a push-pull kneading process with 2 syringes at about 50° C. as described in example 6. The mixture (bulk product) was conditioned in a 0.3 ml single-dose syringes coupled with 20×1.4 mm needles thereafter packed in individual aluminium sealed bags, and sterilized by gamma-irradiation at 25 kGy in dry ice.
Six male Beagle dogs were administered intramuscularly with single-dose syringes previously heated at 50° C. for 3 min in order to improve its fluidity and facilitate its injection. Syringes were weighted before and after administration, and the injected dose of BIM21003 was calculated to be about 3.6 mg per animal.
Four-ml blood samples were obtained from cephalic veins at specified time intervals post-administration. The blood samples were placed in tubes containing an anticoagulant (15% EDTA.K3 aqueous solution) and a preservative (Trasylol®). After centrifugation, plasma was removed and samples were stored below −20° C. until RIA analysis.

SMILES: CC(C)C[C@H](NC(=O)[C@@H](Cc1c[nH]c2ccccc12)NC(=O)[C@H](Cc1ccc(O)cc1)NC(=O)[C@H](CO)NC(=O)[C@H](Cc1c[nH]c2ccccc12)NC(=O)[C@H](Cc1c[nH]cn1)NC(=O)[C@@H]1CCC(=O)N1)C(=O)N[C@@H](CCCNC(=N)N)C(=O)N1CCC[C@H]1C(=O)NCC(N)=O [BIM-21003, triptorelin]
- BIM-21003 plasma levels after 3 days post-administration: below the limit of quantification
